The source of these data is patent publication US12691083B2, “Pharmaceutical composition for preventing or treating attention deficit/hyperactivity disorder, containing KDS2010 as active ingredient” (DANKOOK UNIVERSITY CHEONAN CAMPUS INDUSTRY ACADEMIC …, priority 2021, dated 2026).

Holding throughout (format): in vivo
Experiment [1] has as its system Git1 hetero type (+/−) mice. Briefly: Open field test (hyperactivity, locomotor activity). As to conditions: Git1 hetero type (+/−) mice administered KDS2010; movement measured for 10 minutes; FIG. 4. The protocol:
(§1) The KDS2010 was orally administered at a concentration of 10 mg/kg per day. The amount (mg) of each drug was calculated according to the weight (kg) of each mouse, followed by dissolution in 100 μL of drinking water. Oral administration was performed once a day. The daily amount of water consumed by adult mice older than 7 weeks was administered at a calculated dose of […]. The drug was administered 3 days prior to passive avoidance, and the drug administration was continued during the passive avoidance test. KDS2010 is an inhibitor against monoamine oxidase B (MAOB) and may reduce GABA levels that are increased in astrocytes of the hippocampus.
ADHD is diagnosed based on two main tendencies including a hyperactive type and an inattention type, but the two symptoms don't necessarily occur together. From this point of view, hyperactivity-related abilities should not be impaired in the course of treatment for inattention, which has been determined through an open field test that enables measurement of hyperactivity.
An open field test was performed to assess whether there is a behavioral improvement. […] The mice were placed in the center of an open field test cage (30×30×30 cm), and its movement was measured for 10 minutes. The measured videos were analyzed for locomotor activity through ANYmaze.

Experiment [2] relates to Git1 gene-deficient hetero (+/−) mice. Briefly: Passive avoidance test (fear memory learning ability). As to conditions: Git1 hetero type (+/−) mice, KDS2010 orally 10 mg/kg per day. The procedure: The hippocampus, one of the regions that affects ADHD, is responsible for functions related to learning and memory. In order to evaluate the effect of ameliorating ADHD upon administration of KDS2010, KDS2010 was administered to Git1 gene-deficient hetero (+/−) mice, an animal model with ADHD, and a passive avoidance test that enables evaluation on a fear memory learning ability in relation to the function of the dentate gyrus in the hippocampus was conducted. The passive avoidance test was performed using a common passive avoidance test device which was a shuttle box divided into two rooms, one of which was equipped with a bright light bulb to create a bright environment that the laboratory animals dislike, while the other room was designed not to allow light to enter such that the laboratory animals may feel comfortable. […] Immediately thereafter, after 24 hours and after 48 hours, the latency time of entering a dark room without an electric shock is measured up to 90 seconds (retention tests 1, 2, and 3).
The KDS2010 was orally administered at a concentration of 10 mg/kg per day. The amount (mg) of each drug was calculated according to the weight (kg) of each mouse, followed by dissolution in 100 μL of drinking water. […] The daily amount of water consumed by adult mice older than 7 weeks was administered at a calculated dose of 10 ml/day. […]

Experiment [3] relates to Git1 hetero type (+/−) mice. As to the kind of experiment: Self-grooming test. Conditions: Git1 hetero type (+/−) mice administered KDS2010; recorded for 10 minutes; compared with wild type (+/+); FIG. 5. The procedure: as §1
For a self-grooming test, mice were placed in a plastic cylinder with a diameter of 15 cm and a height of 35 cm. In the plastic cylinder, mice were habituated for about 20 minutes, and then self-grooming behavior was recorded for 10 minutes. The duration of the self-grooming behavior was checked through the recorded video, and if there was an interval of 5 seconds, it was measured as different self-grooming. The number of each different self-grooming behavior was expressed as each different self-grooming bout.

With `C[C@H](NCc1ccc(-c2ccc(C(F)(F)F)cc2)cc1)C(N)=O` [KDS2010, (S)-2-(((4′-(trifluoromethyl)-[1,1′-biphenyl]-4-yl)methyl)amino)propenamide], the effect on hyperactivity result in experiment [1] is listed as “no effect was derived on hyperactivity”. Also, the “fear memory learning ability” value in experiment [2] (from 3 days prior to and during test, compared with wild type (+/+), FIG. 2) is reported as “recovery in the fear memory learning ability, similar to the wild type (+/+) mice”. In experiment [2] (retention trial, compared with wild type), the “entry time (time to enter the dark room), retention” value was “entry time recovered closer to the wild type”. For the same compound, the self-grooming duration entry in experiment [3] is “decrease to a value similar to the wild type (+/+) mice”.
